# According to PMC11510563 (Pharmaceutics, 2024):
# Biological target: T1, oxytocin receptors (Homo sapiens, UniProt P30559)
# T1 construct: endogenous in cells; host or cells: Hs 578T breast cancer cells
# T1 sequence (P30559 1-389): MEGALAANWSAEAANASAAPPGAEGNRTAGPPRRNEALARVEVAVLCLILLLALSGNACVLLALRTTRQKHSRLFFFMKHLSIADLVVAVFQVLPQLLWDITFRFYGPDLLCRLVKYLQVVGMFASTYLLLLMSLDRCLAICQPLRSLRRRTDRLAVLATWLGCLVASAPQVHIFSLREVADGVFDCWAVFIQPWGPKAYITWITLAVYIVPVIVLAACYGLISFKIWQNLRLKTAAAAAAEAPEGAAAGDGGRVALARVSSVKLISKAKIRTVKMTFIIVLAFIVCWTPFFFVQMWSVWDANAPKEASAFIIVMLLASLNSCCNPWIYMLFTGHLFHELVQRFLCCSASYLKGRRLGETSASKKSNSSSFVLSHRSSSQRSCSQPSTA
# Assay: calcium fluorimetry reporter assay in Hs 578T cells
# Type: cell-based
# Settings: Fluo-4, L-368,899 0.1-10 μM, SR 49059 0.1 μM, tolvaptan 1 nM
# Protocol: Twenty-four hours prior to use, Hs 578T cells were seeded in black 96-well plates (80,000 cells in 100 μL of supplemented DMEM per well). On the test day, changes in intracellular calcium ([Ca^2+]i) were measured using a Fluo-4 no wash calcium assay kit (F36206; Thermo Fisher Scientific). Briefly, medium was aspirated and replaced with 100 μL of 1× dye loading solution (Fluo-4 NW mix in 1× HBSS) containing 20 mM 4-(2-hydroxyethyl)-1piperazineethanesulfonic acid (HEPES, Sigma-Aldrich) and 2.5 mM probenecid, which prevents the active transport of Fluo-4 out of the cells. Cells were incubated for 40 min, and then mean fluorescence across each well was measured every 1.6 s for 90 s using a Flexstation 3 (Molecular Devices, Wokingham, UK) with excitation at 485 nm and emission at 525 nm.
row,sensitivity of oxytocin-induced [Ca^2+]i increases to the antagonist,SMILES
1,sensitive to blockade,"Cc1ccccc1N1CCN(S(=O)(=O)C[C@]23CC[C@H](C[C@@H]2NC(=O)[C@@H](N)CCS(C)(=O)=O)C3(C)C)CC1 [L-368,899]"
2,not sensitive,COc1ccc(S(=O)(=O)N2c3ccc(Cl)cc3[C@](O)(c3ccccc3Cl)[C@@H]2C(=O)N2CCC[C@H]2C(N)=O)cc1OC [SR 49059]
3,not sensitive,Cc1ccccc1C(=O)Nc1ccc(C(=O)N2CCCC(O)c3cc(Cl)ccc32)c(C)c1 (stereo not drawn) [tolvaptan]
